Laboratory results reported in patent US5196437A, “Method for treating hepatic diseases and regenerating liver tissue using FK 506 and related compounds” (Fujisawa Pharmaceutical Company, Ltd., priority 1990, dated 1993).

Test system: midzonal hepatocytes
Assay: Eck fistula dogs, left portal vein infusion: electron microscopy of hepatocyte organelles
Format: in vivo, dog (beagle)
Conditions: for Organelle volume in average midzonal hepatocytes, Microbodies, Right / Organelle volume in average midzonal hepatocytes, Mitochondria, Right / Area of rough endoplasmic reticulum per average midzonal hepatocyte, Right / Area of smooth endoplasmic reticulum per average midzonal hepatocyte, Right / Organelle volume in average midzonal hepatocytes, Lipids, Right / Organelle volume in average midzonal hepatocytes, Lysosomes, Right: right lobe; for Organelle volume in average midzonal hepatocytes, Microbodies, Right / Organelle volume in average midzonal hepatocytes, Mitochondria, Right / Area of rough endoplasmic reticulum per average midzonal hepatocyte, Right / Area of smooth endoplasmic reticulum per average midzonal hepatocyte, Right / Organelle volume in average midzonal hepatocytes, Lysosomes, Left / Organelle volume in average midzonal hepatocytes, Lipids, Left / Organelle volume in average midzonal hepatocytes, Microbodies, Left / Organelle volume in average midzonal hepatocytes, Mitochondria, Left / Area of rough endoplasmic reticulum per average midzonal hepatocyte, Left / Area of smooth endoplasmic reticulum per average midzonal hepatocyte, Left / Organelle volume in average midzonal hepatocytes, Lipids, Right / Organelle volume in average midzonal hepatocytes, Lysosomes, Right: mean +/- SD; for Organelle volume in average midzonal hepatocytes, Lysosomes, Left / Organelle volume in average midzonal hepatocytes, Lipids, Left / Organelle volume in average midzonal hepatocytes, Microbodies, Left / Organelle volume in average midzonal hepatocytes, Mitochondria, Left / Area of rough endoplasmic reticulum per average midzonal hepatocyte, Left / Area of smooth endoplasmic reticulum per average midzonal hepatocyte, Left: left (infused) lobe
Experimental: Twenty adult female beagle dogs underwent Eck fistula (Starzl et al, Lancet, 1976, 1:821-25). After performing a large side to side portacaval shunt, the left and right portal vein branches were ligated. A small infusion catheter was tied into the left branch and led through the abdominal wall and subcutaneously to a battery charged infusion pump that was incorporated into a non-restraining body cast. A constant infusion was started of the control or test fluids at the volume of 20 to 30 ml/day. Oral fluids and diet were allowed ad lib. Four days later, the animals were administered 0.2 mCi/kg (CH3 -^3 H)-thymidine with specific activity of 80-90 Ci/MMol (New England Nuclear, Boston). Two hours later, the dogs were anesthetized and killed.
For studies of the organelles, small cubes of each hepatic sample were taken for electron microscopy. The tissue was post-fixed in glutaraldehyde followed by osmic acid. After embedding in Polarbed. 812 resin, ultrathin sections were cut, stained with lead citrate and examined in a Philip's 300 electron microscope. Measurements of the organelles were made on electron micrographs by Loud's method (Loud, J Cell Biol, 1968, 37:27-46).
Results are expressed as mean±standard deviation (SD). The Student's t-test was employed in individual experimental groups to compare differences between right and left lobes or between groups. A p value less than 0.05 was considered to be significant.

C=CCC1C=C(C)CC(C)CC(OC)C2OC(O)(C(=O)C(=O)N3CCCCC3C(=O)OC(C(C)=CC3CCC(O)C(OC)C3)C(C)C(O)CC1=O)C(C)CC2OC (centres unmarked) [FK 506]
Organelle volume in average midzonal hepatocytes, Microbodies, Right (0.01 mg/kg/day): 173.8 +/- 39.6 uM^3
Organelle volume in average midzonal hepatocytes, Mitochondria, Right (0.01 mg/kg/day): 1429.5 +/- 331.2 uM^3
Area of rough endoplasmic reticulum per average midzonal hepatocyte, Right (0.01 mg/kg/day, p vs vehicle 0.0019): 18697 +/- 1010 uM^2
Area of smooth endoplasmic reticulum per average midzonal hepatocyte, Right (0.01 mg/kg/day, p vs vehicle 0.1092): 23337 +/- 902 uM^2
Organelle volume in average midzonal hepatocytes, Lysosomes, Left (0.1 mg/kg/day, left vs right p 0.0000): 59.6 +/- 15.6 uM^3
Organelle volume in average midzonal hepatocytes, Lipids, Left (0.1 mg/kg/day, left vs right p 0.0011): 22.8 +/- 6.7 uM^3
Organelle volume in average midzonal hepatocytes, Microbodies, Left (0.1 mg/kg/day, left vs right p 0.0025): 86.3 +/- 11.5 uM^3
Organelle volume in average midzonal hepatocytes, Mitochondria, Left (0.1 mg/kg/day, left vs right p 0.2529): 1288.5 +/- 236.2 uM^3
Area of rough endoplasmic reticulum per average midzonal hepatocyte, Left (0.1 mg/kg/day, p vs vehicle 0.0001, left vs right 0.0001): 29889 +/- 1117 uM^2
Area of smooth endoplasmic reticulum per average midzonal hepatocyte, Left (0.1 mg/kg/day, p vs vehicle 0.0703, left vs right 0.0018): 18688 +/- 498 uM^2
Organelle volume in average midzonal hepatocytes, Lipids, Right (0.1 mg/kg/day): 83.8 +/- 19.7 uM^3
Organelle volume in average midzonal hepatocytes, Lysosomes, Right (0.1 mg/kg/day): 187.6 +/- 14.8 uM^3
Organelle volume in average midzonal hepatocytes, Microbodies, Right (0.1 mg/kg/day): 172.5 +/- 34.2 uM^3
Organelle volume in average midzonal hepatocytes, Mitochondria, Right (0.1 mg/kg/day): 1439.3 +/- 115.4 uM^3
Area of rough endoplasmic reticulum per average midzonal hepatocyte, Right (0.1 mg/kg/day, p vs vehicle 0.0007): 20325 +/- 975 uM^2
Area of smooth endoplasmic reticulum per average midzonal hepatocyte, Right (0.1 mg/kg/day, p vs vehicle 0.0725): 22747 +/- 1305 uM^2
preservation of the RER in the right lobes (1 mg/kg/day, compared to vehicle controls): better preservation of the RER
lipid accumulation in right lobes (1 mg/kg/day, compared to vehicle controls, p<0.001): reduced lipid accumulation
Organelle volume in average midzonal hepatocytes, Lysosomes, Left (1.0 mg/kg/day, left vs right p 0.0002): 48.8 +/- 10.9 uM^3
Organelle volume in average midzonal hepatocytes, Lipids, Left (1.0 mg/kg/day, left vs right p 0.0044): 15.6 +/- 2.8 uM^3
Organelle volume in average midzonal hepatocytes, Microbodies, Left (1.0 mg/kg/day, left vs right p 0.1111): 94.2 +/- 10.4 uM^3
Organelle volume in average midzonal hepatocytes, Mitochondria, Left (1.0 mg/kg/day, left vs right p 0.1996): 1284.8 +/- 178.9 uM^3
Area of rough endoplasmic reticulum per average midzonal hepatocyte, Left (1.0 mg/kg/day, p vs vehicle 0.0000, left vs right 0.0002): 32091 +/- 1225 uM^2
Area of smooth endoplasmic reticulum per average midzonal hepatocyte, Left (1.0 mg/kg/day, p vs vehicle 0.0574, left vs right 0.0024): 17876 +/- 642 uM^2
lysosomes in right lobar hepatocytes (1 mg/kg/day, p<0.05): reduced
microbodies in right lobar hepatocytes (1 mg/kg/day, p=0.07): reduced
Organelle volume in average midzonal hepatocytes, Lipids, Right (1.0 mg/kg/day): 47.8 +/- 11.3 uM^3
Organelle volume in average midzonal hepatocytes, Lysosomes, Right (1.0 mg/kg/day): 160.0 +/- 23.8 uM^3
Organelle volume in average midzonal hepatocytes, Microbodies, Right (1.0 mg/kg/day): 136.6 +/- 41.3 uM^3
Organelle volume in average midzonal hepatocytes, Mitochondria, Right (1.0 mg/kg/day): 1440.6 +/- 318.7 uM^3
Area of rough endoplasmic reticulum per average midzonal hepatocyte, Right (1.0 mg/kg/day, p vs vehicle 0.0003): 20839 +/- 1612 uM^2
Area of smooth endoplasmic reticulum per average midzonal hepatocyte, Right (1.0 mg/kg/day, p vs vehicle 0.0858): 23154 +/- 193 uM^2
mitochondria (FK 506-infused lobes): neither enlarged (Table V) nor abnormal
number of microbodies, lysosomes and small lipid containing vacuoles (FK 506-infused lobes): near normal levels
amount of rough endoplasmic reticulum (infused lobes): restored relative to controls
dilatation and disruption of the cisternae (infused lobes): minimal
ultrastructure of hepatocytes exposed to infused FK 506 (left lobes, even at the smallest doses): almost normal even at the smallest doses
changes in the hepatocytes in the right lobes (low doses of FK 506, compared with controls): did not differ greatly from those seen in the controls
